Common to all, as to assay type: cell-based
One data set relates to HCV Replicon 2A. Kind of data set: HCV Replicon 2A EC50 (Example Q). Conditions: Hepatitis C virus, 72 h, read-out: HCV Replicon 2A EC50 (nM) (per Ex. Q). The procedure:
(§1) Compounds were serially diluted in ten steps of 1:3 dilutions in 384-well plates. All serial dilutions were performed in four replicates per compound within the same 384-well plate. An HCV protease inhibitor ITMN-191 at […] was added as a control of 100% inhibition of HCV replication while puromycin at 10 mM was included as a control of 100% cytotoxicity. To each well of a black polystyrene 384-well plate (Greiner Bio-one, Monroe, NC), 90 μL of cell culture medium (without Geneticin) containing 2000 suspended HCV replicon cells was added with a Biotek μFlow workstation. For compound transfer into cell culture plates, 0.4 μL of compound solution from the compound serial dilution plate was transferred to the cell culture plate on a Biomek FX workstation. The DMSO concentration in the final assay wells was 0.44%. The plates were incubated for 3 days at 37° C. with 5% CO2 and 85% humidity. The HCV replicon assay was a multiplex assay, able to assess both cytotoxicity and antireplicon activity from the same well. The CC50 assay was performed first. The media in the 384-well cell culture plate was aspirated, and the wells were washed four times with 100 μL of PBS each, using a Biotek ELX405 plate washer. A volume of 50 μL of a solution containing 400 nM calcein AM (Anaspec, Fremont, CA) in 1×PBS was added to each well of the plate with a Biotek μFlow workstation. The plate was incubated for 30 min at room temperature before the fluorescence signal (excitation 490 nm, emission 520 nm) was measured with a Perkin-Elmer Envision plate reader. The EC50 assay was performed in the same wells as the CC50 assay. The calcein-PBS solution in the 384-well cell culture plate was aspirated with a Biotek ELX405 plate washer. A volume of 20 μL of Dual-Glo luciferase buffer (Promega, Madison, WI) was added to each well of the plate with a Biotek μFlow Workstation. The plate was incubated for 10 min at room temperature. A volume of 20 μL of a solution containing a 1:100 mixture of Dual-Glo Stop & Glo substrate (Promega, Madison, WI) and Dual-Glo Stop & Glo buffer (Promega, Madison, WI) was added to each well of the plate with a Biotek μFlow Workstation. The plate was then incubated at room temperature for 10 min before the luminescence signal was measured with a Perkin-Elmer Envision Plate Reader.

Data set [1] is described as follows: HCV Replicon 2A CC50, calcein AM (Example Q). Conditions: calcein AM fluorescence, read-out: HCV Replicon 2A CC50 (nM) (per Ex. Q). The method, then:
as §1

The subject of data set [2] is CAN97-83-GFP1 (A2a) hMPV in H1-HeLa cells. Kind of data set: hMPV H1-Hela EC50, anti-nucleoprotein ELISA (Example X). Particulars: human metapneumovirus, 96 h, read-out: hMPV H1-Hela EC50 (nM) (per Ex. X). The procedure: The human metapneumoavirus (hMPV) anti-viral assay is an anti-nucleoprotein ELISA performed in infected H1-HeLa cells. H1-HeLa cells were maintained in Dulbecco's Modified Eagle's Medium with high glucose (Gibco, Cat #: 11995073) supplemented with 10% FBS (HyClone, Cat #: SH303396.03), 100 units/mL penicillin and 100 μg/mL streptomycin (Gibco, Cat #: 15140122). One day before infection, H1-HeLa cells were seeded into 96-well plates (Corning, Cat. #: 3903) at 0.1 mL/well at 1.5×10^5 cells/mL in Opti-MEM (Gibco, Cat #: 31985070) supplemented with 2% FBS, and were incubated at 37° C. in a 100% humid atmosphere containing 5% (v/v) CO2 overnight. On the next day, CAN97-83-GFP1 (A2a) hMPV was diluted in Opti-MEM medium containing 200 μg/mL CaCl2) and 2 μg/mL TPCK treated trypsin and distributed to the 96-well plates at 0.1 mL/well for an MOI=0.1. Test compounds were distributed to each well using a HP D300e digital dispenser with a final volume of 200 µL/well. After the plates were centrifuged at 700 g for one hour at room temperature, they were maintained in a humidified chamber at 37-C with 5% (v/v) CO2 for 96 hours. After the incubation, the medium was removed, and the plates were fixed with 0.1 mL/well 1% formaldehyde for 15 min at room temperature. The fixative was removed, the plates were air dried for 30-60 minutes, and then permeabilized with 0.1 mL/well 0.5% Triton X-100 in PBS for five minutes at room temperature. Following permeabilization, the plates were washed once with 0.1 mL/well blocking buffer consisting of 10% FBS (HyClone, Cat #: SH303396.03), 5% dry milk (AmericanBio, Cat #: AB10109-01000), and 0.1% Tween 20 (EMD Millipore, Cat #655204) in PBS. The plates were blocked with 0.1 mL/well blocking buffer for 60 minutes at 37° C. afterward. The blocking buffer was removed and 0.05 mL/well human metapneumovirus nucleocapsid antibody (Sigma, Cat #MAB80121) diluted 1:500 in Blocking buffer was added and incubated for two hours at 37-C. The plates were then washed with 0.2 mL/well 0.1% Tween 20/PBS five times, followed by addition of 0.05 mL/well of horseradish peroxidase (HRP) conjugated goat anti-mouse IgG antibody (Fisher Scientific, Cat #501077607) at 1:2000 dilution in the blocking buffer. After one-hour incubation at 37-C, plates were washed five times with 0.2 mL/well 0.1% tween 20 in PBS. The HRP signals were developed by adding 0.1 mL/well of TMB reagent (Thermo Scientific, Cat #: ENN301) and incubating at room until the positive control was apparent. At that point, the reaction was stopped by adding 0.1 mL/well TMB stop solution (SeraCare, Cat #: 5150-0021). The absorbance was measured at 450 nm with an EnVision plate reader. The relative absorbance was calculated by normalizing the absorbance of the compound-treated groups to that of the DMSO-treated groups (set as 100%). EC50 values were calculated using a nonlinear four parameter variable slope regression model.
On the technique in general: An ELISA detects its analyte on a solid surface through an enzyme-linked reagent.

Setting [3] is: HCV replicon cells, 3 days, Dual-Glo luciferase.

The structures appear in SMILES notation. Read-outs that look alike come from different tables or passages of the source.

The term EC50 denotes the concentration needed to bring the measured effect to its halfway point. What is called CC50 is the concentration at which the toxic effect on the cells reaches its halfway point.

`CCCCCCCCCCCCCCCCCCOC[C@H](COP(=O)(O)OC[C@@]1(C#N)O[C@@H](c2ccc3c(N)ncnn23)[C@H](O)[C@@H]1O)OCc1cc(F)cc(C#N)c1` [Compound 1, ((2R,3S,4R,5S)-5-(4-aminopyrrolo[2,1-f][1,2,4]triazin-7-yl)-2-cyano-3,4-dihydroxytetrahydrofuran-2-yl)methyl ((R)-2-((3-cyano-5-fluorobenzyl)oxy)-3-(octadecyloxy)propyl) hydrogen phosphate]: the EC50 with HCV Replicon 2A (setting [3]) came to 20600 nM; in data set [2] it was 440 nM. The half-maximal cytotoxic concentration (CC50) at 3 days in data set [1] (HCV replicon cells (2A)) was more than 44400 nM.

With `CCCCCCCCCCCCCCCCCCOC[C@H](COP(=O)(O)OC[C@@]1(C#N)O[C@@H](c2ccc3c(N)ncnn23)[C@H](O)[C@@H]1O)OCc1ccc(C#N)c(Cl)c1` [Compound 7, ((2R,3S,4R,5S)-5-(4-aminopyrrolo[2,1-f][1,2,4]triazin-7-yl)-2-cyano-3,4-dihydroxytetrahydrofuran-2-yl)methyl ((R)-2-((3-chloro-4-cyanobenzyl)oxy)-3-(octadecyloxy)propyl) hydrogen phosphate], the figures for the EC50 (with HCV Replicon 2A (setting [3]); in data set [2]) were 30600 nM and 358 nM, respectively. In data set [1] (HCV replicon cells (2A)), the CC50 at 3 days was more than 44400 nM.

In the case of `CCCCCCCCCCCCCCCCCCC[C@H](COP(=O)(O)OC[C@@]1(C#N)O[C@@H](c2ccc3c(N)ncnn23)[C@H](O)[C@@H]1O)OCc1ccc(-n2cncn2)c(C#N)c1` [Compound 30, ((2R,3S,4R)-5-(4-aminopyrrolo[2,1-f][1,2,4]triazin-7-yl)-2-cyano-3,4-dihydroxytetrahydrofuran-2-yl)methyl ((R)-2-((3-cyano-4-(1H-1,2,4-triazol-1-yl)benzyl)oxy)henicosyl) hydrogen phosphate], the EC50 in the data set with HCV Replicon 2A was 15800 nM; in data set [2] it was 188 nM. In addition, in data set [1] (HCV replicon cells), the CC50 at 3 days was 42400 nM.

On to `CCCCCCCCCCCCCCCCC[C@H](COP(=O)(O)OC[C@@]1(C#N)O[C@@H](c2ccc3c(N)ncnn23)[C@H](O)[C@@H]1O)OCc1cc(F)cc(C#N)c1` [Compound 36, ((2R,3S,4R,5S)-5-(4-aminopyrrolo[2,1-f][1,2,4]triazin-7-yl)-2-cyano-3,4-dihydroxytetrahydrofuran-2-yl)methyl ((R)-2-((3-cyano-5-fluorobenzyl)oxy)nonadecyl) hydrogen phosphate], for which the EC50 is 21800 nM with HCV Replicon 2A and 1100 nM in data set [2]. Also, the CC50 at 3 days in data set [1] (HCV replicon cells) was more than 44400 nM.

As for `CCCCCCCCCCCCCCCCCCOC[C@H](COP(=O)(O)OC[C@@]1(C#N)O[C@@H](c2ccc3c(N)ncnn23)[C@H](O)[C@@H]1O)OCc1cccc(C#N)n1` [Compound 68, ((2R,3S,4R)-5-(4-aminopyrrolo[2,1-f][1,2,4]triazin-7-yl)-2-cyano-3,4-dihydroxytetrahydrofuran-2-yl)methyl ((R)-2-((6-cyanopyridin-2-yl)methoxy)-3-(octadecyloxy)propyl) hydrogen phosphate], the values for the EC50 (in the data set with HCV Replicon 2A; in data set [2]) were 15200 nM and 214 nM, respectively. Moreover, the CC50 at 3 days in data set [1] (HCV replicon cells) is more than 44400 nM.

With `CCCCCCCCCCCCCCCCCCOC[C@@H](COP(=O)(O)OC[C@@]1(C#N)O[C@@H](c2ccc3c(N)ncnn23)[C@H](O)[C@@H]1O)Oc1ccc(C#N)nc1` [Compound 72, ((2R,3S,4R,5S)-5-(4-aminopyrrolo[2,1-f][1,2,4]triazin-7-yl)-2-cyano-3,4-dihydroxytetrahydrofuran-2-yl)methyl ((S)-2-((6-cyanopyridin-3-yl)oxy)-3-(octadecyloxy)propyl) hydrogen phosphate], the EC50 is more than 44400 nM in the data set on HCV Replicon 2A and 70 nM in data set [2]. Moreover, the CC50 at 3 days in data set [1] (HCV replicon cells) was more than 44400 nM.

As for `CCCCCCCCCCCCCCCC[C@@H](COP(=O)(O)OC[C@@]1(C#N)O[C@@H](c2ccc3c(N)ncnn23)[C@H](O)[C@@H]1O)OCc1cc(F)cc(C#N)c1` [Compound 79, ((2R,3S,4R,5S)-5-(4-aminopyrrolo[2,1-f][1,2,4]triazin-7-yl)-2-cyano-3,4-dihydroxytetrahydrofuran-2-yl)methyl ((S)-2-((3-cyano-5-fluorobenzyl)oxy)octadecyl) hydrogen phosphate], the figures for the EC50 (in the data set with HCV Replicon 2A (setting [3]); in data set [2]) were 20000 nM and 1610 nM, respectively. Moreover, the CC50 at 3 days in data set [1] (HCV replicon cells (2A)) was 30200 nM.

For the compound `CCCCCCCCCCCCCCC[C@H](COP(=O)(O)OC[C@@]1(C#N)O[C@@H](c2ccc3c(N)ncnn23)[C@H](O)[C@@H]1O)OCc1cc(F)cc(C#N)c1` [Compound 80, ((2R,3S,4R,5S)-5-(4-aminopyrrolo[2,1-f][1,2,4]triazin-7-yl)-2-cyano-3,4-dihydroxytetrahydrofuran-2-yl)methyl ((R)-2-((3-cyano-5-fluorobenzyl)oxy)heptadecyl) hydrogen phosphate], the EC50 in the data set on HCV Replicon 2A (setting [3]) was 21200 nM; in data set [2] it was 668 nM. In addition, the CC50 at 3 days in data set [1] (HCV replicon cells (2A)) is 36900 nM.

In the case of `CCCCCCCCCCCCCCCCCC[C@H](COP(=O)(O)OC[C@@]1(C#N)O[C@@H](c2ccc3c(N)ncnn23)[C@H](O)[C@@H]1O)OCc1cc(Cl)cc(C#N)c1` [Compound 81, ((2R,3S,4R,5S)-5-(4-aminopyrrolo[2,1-f][1,2,4]triazin-7-yl)-2-cyano-3,4-dihydroxytetrahydrofuran-2-yl)methyl ((R)-2-((3-chloro-5-cyanobenzyl)oxy)icosyl) hydrogen phosphate], the EC50 was 15900 nM in the data set on HCV Replicon 2A (setting [3]) and 453 nM in data set [2]. In data set [1] (HCV replicon cells (2A)), the CC50 at 3 days was 37900 nM.

For `CCCCCCCCCCCCCCCCCCC[C@H](COP(=O)(O)OC[C@@]1(C#N)O[C@@H](c2ccc3c(N)ncnn23)[C@H](O)[C@@H]1O)OCc1cc(Cl)cc(C#N)c1` [Compound 82, ((2R,3S,4R,5S)-5-(4-aminopyrrolo[2,1-f][1,2,4]triazin-7-yl)-2-cyano-3,4-dihydroxytetrahydrofuran-2-yl)methyl ((R)-2-((3-chloro-5-cyanobenzyl)oxy)henicosyl) hydrogen phosphate], the EC50 in the data set with HCV Replicon 2A (setting [3]) worked out at 19200 nM; in data set [2], 1120 nM. In data set [1] (HCV replicon cells (2A)), the CC50 at 3 days was 37600 nM.

Values taken from US20250034182A1, “PHOSPHOLIPID COMPOUNDS AND METHODS OF MAKING AND USING THE SAME” (priority 2021, published 2025).
